According to ChEMBL document CHEMBL1138447, “New Rev-export inhibitor from Alpinia galanga and structure-activity relationship” (Bioorg Med Chem Lett, 2009):
The source made the active and inactive calls. The rule behind the calls is not given here.

Tested on: HeLa
Test: Inhibition of hemagglutininin-tagged HIV1 Rev protein nuclear export in human HeLa cells assessed as localization at 5 uM by indirect fluorescent antibody technique
Type: cell-based
Conditions: Human immunodeficiency virus 1

C=C[C@H](OC(C)=O)c1ccc(OC(C)=O)cc1
Activity: Active
